The values that follow come from patent US20150105386A1, “4-(4-PYRIDINYL)-BENZAMIDES AND THEIR USE AS ROCK ACTIVITY MODULATORS” (AbbVie Deutschland GmbH & Co KG, priority 2007, published 2015).

What is called Ki is a dissociation constant, usually derived from enzyme kinetics or from competition with a known ligand. High values mean weaker binding, low ones tighter binding.

The target of the test is T1, hROCK-2 (Homo sapiens, UniProt O75116).
T1 construct: purchased Upstate
T1 sequence (O75116 whole entry): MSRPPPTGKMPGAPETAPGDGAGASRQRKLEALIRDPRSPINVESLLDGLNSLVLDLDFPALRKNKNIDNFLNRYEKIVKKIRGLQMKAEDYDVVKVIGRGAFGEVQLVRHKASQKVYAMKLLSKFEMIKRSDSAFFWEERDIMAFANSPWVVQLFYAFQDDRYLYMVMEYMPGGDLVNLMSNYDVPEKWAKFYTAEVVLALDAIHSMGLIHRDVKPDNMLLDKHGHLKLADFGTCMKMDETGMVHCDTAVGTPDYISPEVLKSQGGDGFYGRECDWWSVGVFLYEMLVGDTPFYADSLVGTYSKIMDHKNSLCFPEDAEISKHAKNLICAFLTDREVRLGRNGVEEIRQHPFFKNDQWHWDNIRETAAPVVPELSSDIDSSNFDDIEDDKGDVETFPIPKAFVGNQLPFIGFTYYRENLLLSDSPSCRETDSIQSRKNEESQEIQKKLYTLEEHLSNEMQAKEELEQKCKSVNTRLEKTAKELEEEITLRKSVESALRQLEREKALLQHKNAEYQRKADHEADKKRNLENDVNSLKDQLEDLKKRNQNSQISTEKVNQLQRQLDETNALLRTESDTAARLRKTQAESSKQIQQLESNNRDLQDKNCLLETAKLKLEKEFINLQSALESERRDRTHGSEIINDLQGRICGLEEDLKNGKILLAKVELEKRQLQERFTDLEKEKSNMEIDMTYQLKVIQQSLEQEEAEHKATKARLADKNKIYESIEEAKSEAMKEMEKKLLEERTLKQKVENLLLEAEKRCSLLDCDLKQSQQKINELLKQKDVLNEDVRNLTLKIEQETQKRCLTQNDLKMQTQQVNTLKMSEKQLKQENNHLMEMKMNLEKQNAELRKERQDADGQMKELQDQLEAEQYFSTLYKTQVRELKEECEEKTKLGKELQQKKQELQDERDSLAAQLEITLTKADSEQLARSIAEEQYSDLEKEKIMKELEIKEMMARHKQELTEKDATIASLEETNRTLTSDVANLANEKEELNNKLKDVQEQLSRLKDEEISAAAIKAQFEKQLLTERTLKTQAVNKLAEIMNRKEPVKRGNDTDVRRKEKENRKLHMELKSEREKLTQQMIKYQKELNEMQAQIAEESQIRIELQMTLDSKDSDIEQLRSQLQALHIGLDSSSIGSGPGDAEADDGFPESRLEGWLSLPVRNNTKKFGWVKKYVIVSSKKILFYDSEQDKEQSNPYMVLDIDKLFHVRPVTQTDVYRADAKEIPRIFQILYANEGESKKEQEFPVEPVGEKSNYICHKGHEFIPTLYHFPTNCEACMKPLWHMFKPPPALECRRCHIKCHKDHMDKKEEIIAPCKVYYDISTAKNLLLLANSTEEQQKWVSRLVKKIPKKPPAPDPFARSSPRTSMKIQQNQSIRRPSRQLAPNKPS
As to the kind of experiment: ROCK-2 Assay (33P-ATP FlashPlate kinase assay, biotinylated S6 peptide). It counts as biochemical. Conditions: hROCK-2 0.8 nM, 5 μM ATP, 1.5 μM biotinylated S6 peptide, room temperature, 60 min. As to the method: The reaction is stopped by addition of 150 μl of 0.1 M EDTA in Dulbecco's PBS. 170 μl from each well are loaded onto a FlashPlate (PerkinElmer) and incubated at room temperature for 30 min.
`C[C@@H](NC(=O)c1ccc(-c2ccncc2)cc1)c1cc(C(F)(F)F)cc(C(F)(F)F)c1` [Example 89, N-{(1R)-1-[3,5-bis(trifluoromethyl)phenyl]ethyl}-4-pyridin-4-ylbenzamide] returned an inhibition constant (Ki) of 0.05 to 0.5 µM.
Molecule `C[C@@H](NC(=O)c1ccc(-c2ccncc2)cc1)c1ccc(Cl)cc1` [Example 90, N-[(1R)-1-(4-chlorophenyl)ethyl]-4-pyridin-4-ylbenzamide] came in with an inhibition constant Ki of under 0.05 µM.
Turning to `C[C@@H](NC(=O)c1ccc(-c2ccncc2)cc1)c1ccc2ccccc2c1` [Example 91, N-[(1R)-1-(2-naphthyl)ethyl]-4-pyridin-4-ylbenzamide], the Ki is under 0.05 µM.
Turning to `COc1cc(-c2ccncc2)ccc1C(=O)N[C@H](CCO)c1ccccc1` [Example 94, N—((R)-3-hydroxy-1-phenyl-propyl)-2-methoxy-4-pyridin-4-yl-benzamide], the Ki was under 0.05 µM.
Next, `COc1cccc([C@@H](C)NC(=O)c2ccc(-c3ccncc3)cc2C)c1` [Example 96, N—[(R)-1-(3-methoxy-phenyl)-ethyl]-2-methyl-4-pyridin-4-yl-benzamide]: under 0.05 µM.
The molecule `COc1cccc([C@@H](C)NC(=O)c2ccc(-c3ccncc3)c(OC)c2)c1` [Example 97, 3-methoxy-N—[(R)-1-(3-methoxy-phenyl)-ethyl]-4-pyridin-4-yl-benzamide] gave an inhibition constant Ki of under 0.05 µM.
Next, `COc1cccc([C@@H](C)NC(=O)c2ccc(-c3ccncc3C)cc2)c1` [Example 101, N—[(R)-1-(3-Methoxy-phenyl)-ethyl]-4-(3-methyl-pyridin-4-yl)-benzamide]: under 0.05 µM; `COc1cccc([C@H](C)NC(=O)c2ccc(-c3ccncc3)c(C)c2)c1` [Example 102, N—[(S)-1-(3-methoxy-phenyl)-ethyl]-3-methyl-4-pyridin-4-yl-benzamide]: under 0.05 µM; `COc1cccc([C@@H](C)NC(=O)c2ccc(-c3ccncc3)cc2OC)c1` [Example 103, 2-methoxy-N—[(R)-1-(3-methoxy-phenyl)-ethyl]-4-pyridin-4-yl-benzamide]: under 0.05 µM.
Next, `COc1cc(-c2ccncc2)ccc1C(=O)N[C@H](C)c1cccc2ccccc12` [Example 106, 2-methoxy-N—((R)-1-naphthalen-1-yl-ethyl)-4-pyridin-4-yl-benzamide]: under 0.05 µM; `COc1cc(-c2ccncc2)ccc1C(=O)N[C@H](C)c1ccc2ccccc2c1` [Example 107, 2-methoxy-N—((R)-1-naphthalen-2-yl-ethyl)-4-pyridin-4-yl-benzamide]: 0.05 to 0.5 µM; `COc1cc(-c2ccncc2)ccc1C(=O)N[C@H](C)c1ccccc1` [Example 112, 2-methoxy-N—((R)-1-phenyl-ethyl)-4-pyridin-4-yl-benzamide]: under 0.05 µM.
Take `COc1cc(-c2ccncc2)ccc1C(=O)N[C@@H](C)c1ccccc1` [Example 114, 2-methoxy-N—((S)-1-phenyl-ethyl)-4-pyridin-4-yl-benzamide]: the inhibition constant (Ki) was 0.05 to 0.5 µM.
The figure for `COc1cccc([C@H](C)NC(=O)c2ccc(-c3ccncc3)cc2OC)c1` [Example 130, 2-methoxy-N—[(S)-1-(3-methoxy-phenyl)-ethyl]-4-pyridin-4-yl-benzamide] is 0.05 to 0.5 µM.
Next, `COc1cc(-c2ccncc2)ccc1C(=O)N[C@H](C)c1cccc(C(F)(F)F)c1` [Example 132, 2-methoxy-4-pyridin-4-yl-N—[(R)-1-(3-trifluoromethyl-phenyl)-ethyl]-benzamide]: under 0.05 µM.
Next, `COc1cc(-c2ccncc2)ccc1C(=O)NC(CO)c1cc(Cl)cc(Cl)c1` (stereo not shown) [Example 135, N-[1-(3,5-dichloro-phenyl)-2-hydroxy-ethyl]-2-methoxy-4-pyridin-4-ylbenzamide]: under 0.05 µM; `COc1cc(-c2ccncc2)ccc1C(=O)NC(CO)c1cccc2ccccc12` (stereo not shown) [Example 140, N-(2-hydroxy-1-naphthalen-1-yl-ethyl)-2-methoxy-4-pyridin-4-ylbenzamide]: under 0.05 µM; `COc1cccc(C(CN2CCCC2)NC(=O)c2ccc(-c3ccncc3)cc2)c1` (stereo not shown) [Example 149, N-[1-(3-methoxy-phenyl)-2-pyrrolidin-1-yl-ethyl]-4-pyridin-4-yl-benzamide]: under 0.05 µM.
As for `CC(NC(=O)c1ccc(-c2ccncc2)cc1)c1cccc(OCc2ccccc2)c1` (stereo not shown) [Example 151, N-[1-(3-benzyloxy-phenyl)-ethyl]-4-pyridin-4-yl-benzamide], the inhibition constant (Ki) is under 0.05 µM.
With `CC(C)Oc1cccc(C(C)NC(=O)c2ccc(-c3ccncc3)cc2)c1` (stereo not shown) [Example 152, N-[1-(3-isopropoxy-phenyl)-ethyl]-4-pyridin-4-yl-benzamide], the Ki was under 0.05 µM.
The figure for `CC(C)COc1cccc(C(C)NC(=O)c2ccc(-c3ccncc3)cc2)c1` (stereo not shown) [Example 153, N-[1-(3-isobutoxy-phenyl)-ethyl]-4-pyridin-4-yl-benzamide] is under 0.05 µM; for `COc1cccc([C@@H](C)NC(=O)c2ccc(-c3ccncc3)c(Cl)c2)c1` [Example 156, 3-Chloro-N—[(R)-1-(3-methoxy-phenyl)-ethyl]-4-pyridin-4-yl-benzamide] it is under 0.05 µM.
Next, `Cc1cnccc1-c1ccc(C(=O)N[C@H](C)c2ccccc2)cc1` [Example 157, 4-(3-methyl-pyridin-4-yl)-N—((R)-1-phenyl-ethyl)-benzamide]: under 0.05 µM; `Cc1cnccc1-c1ccc(C(=O)N[C@H](C)c2cccc3ccccc23)cc1` [Example 159, 4-(3-methyl-pyridin-4-yl)-N—((R)-1-naphthalen-1-yl-ethyl)-benzamide]: under 0.05 µM.
Next, `Cc1cnccc1-c1ccc(C(=O)NC2CCCc3ccccc32)cc1` (stereo not shown) [Example 160, 4-(3-methyl-pyridin-4-yl)-N-(1,2,3,4-tetrahydro-naphthalen-1-yl)-benzamide]: 0.05 to 0.5 µM; `Cc1cnccc1-c1ccc(C(=O)N[C@H](C)c2ccc(Br)cc2)cc1` [Example 166, N—[(R)-1-(4-bromo-phenyl)-ethyl]-4-(3-methyl-pyridin-4-yl)-benzamide]: 0.05 to 0.5 µM; `Cc1cnccc1-c1ccc(C(=O)N[C@H](C)c2ccc(Cl)cc2)cc1` [Example 168, N—[(R)-1-(4-chloro-phenyl)-ethyl]-4-(3-methyl-pyridin-4-yl)-benzamide]: 0.05 to 0.5 µM.
As to `Cc1cnccc1-c1ccc(C(=O)N[C@H](C)c2ccc3ccccc3c2)cc1` [Example 170, 4-(3-methyl-pyridin-4-yl)-N—((R)-1-naphthalen-2-yl-ethyl)-benzamide], the Ki lay in the range of 0.05 to 0.5 µM.
The figure for `COc1ccccc1C(CO)NC(=O)c1ccc(-c2ccncc2C)cc1` (stereo not shown) [Example 171, N-[2-hydroxy-1-(2-methoxy-phenyl)-ethyl]-4-(3-methyl-pyridin-4-yl)-benzamide] is 0.05 to 0.5 µM.
The figure for `Cc1cnccc1-c1ccc(C(=O)NC(CO)c2cccc3ccccc23)cc1` (stereo not shown) [Example 172, N-(2-hydroxy-1-naphthalen-1-yl-ethyl)-4-(3-methyl-pyridin-4-yl)-benzamide] is under 0.05 µM; for `COc1ccccc1[C@@H](C)NC(=O)c1ccc(-c2ccncc2C)cc1` [Example 175, N—[(R)-1-(2-methoxy-phenyl)-ethyl]-4-(3-methyl-pyridin-4-yl)-benzamide] it is 0.05 to 0.5 µM; for `COc1cccc([C@H](C)NC(=O)c2ccc(-c3ccncc3C)cc2)c1` [Example 179, N—[(S)-1-(3-methoxy-phenyl)-ethyl]-4-(3-methyl-pyridin-4-yl)-benzamide] it is 0.05 to 0.5 µM.
Next, `Cc1cnccc1-c1ccc(C(=O)N[C@H](C)c2ccc(F)cc2)cc1` [Example 180, N—[(R)-1-(4-fluoro-phenyl)-ethyl]-4-(3-methyl-pyridin-4-yl)-benzamide]: under 0.05 µM.
Turning to `Cc1cnccc1-c1ccc(C(=O)N[C@H](C)c2cccc(C(F)(F)F)c2)cc1` [Example 181, 4-(3-methyl-pyridin-4-yl)-N—[(R)-1-(3-trifluoromethyl-phenyl)-ethyl]-benzamide], the Ki was under 0.05 µM.
Regarding `Cc1cnccc1-c1ccc(C(=O)NC(CO)c2cc(Cl)cc(Cl)c2)cc1` (stereo not shown) [Example 185, N-[1-(3,5-dichloro-phenyl)-2-hydroxy-ethyl]-4-(3-methyl-pyridin-4-yl)-benzamide], the inhibition constant (Ki) was in the range of 0.05 to 0.5 µM.
`O=C(NC(CO)c1cccc2ccccc12)c1ccc(-c2ccncc2)cc1` (stereo not shown) [Example 187, N-(2-hydroxy-1-naphthalen-1-yl-ethyl)-4-pyridin-4-yl-benzamide]: the Ki is under 0.05 µM.
The figure for `COC[C@@H](NC(=O)c1ccc(-c2ccncc2)cc1)c1ccccc1` [Example 188, N—((S)-2-methoxy-1-phenyl-ethyl)-4-pyridin-4-yl-benzamide] is under 0.05 µM; for `COc1ccc(C(C)NC(=O)c2ccc(-c3ccncc3)cc2)c2ccccc12` (stereo not shown) [Example 189, N-[1-(4-methoxy-naphthalen-1-yl)-ethyl]-4-pyridin-4-yl-benzamide] it is 0.05 to 0.5 µM; for `C[C@@H](NC(=O)c1ccc(-c2ccncc2)cc1Cl)c1ccccc1` [Example 191, 2-chloro-N—((R)-1-phenyl-ethyl)-4-pyridin-4-yl-benzamide] it is 0.05 to 0.5 µM.
`C[C@@H](NC(=O)c1ccc(-c2ccncc2)cc1Cl)c1cccc2ccccc12` [Example 192, 2-chloro-N—((R)-1-naphthalen-1-yl-ethyl)-4-pyridin-4-yl-benzamide] registered an inhibition constant (Ki) of under 0.05 µM.
Next, `C[C@@H](NC(=O)c1ccc(-c2ccncc2)c(F)c1)c1cccc2ccccc12` [Example 217, 3-fluoro-N—((R)-1-naphthalen-1-yl-ethyl)-4-pyridin-4-yl-benzamide]: under 0.05 µM; `C[C@@H](NC(=O)c1ccc(-c2ccncc2)c(F)c1)c1ccc2ccccc2c1` [Example 229, 3-fluoro-N—((R)-1-naphthalen-2-yl-ethyl)-4-pyridin-4-yl-benzamide]: 0.05 to 0.5 µM; `COc1cccc([C@H](C)NC(=O)c2ccc(-c3ccncc3)c(F)c2)c1` [Example 236, 3-fluoro-N—[(S)-1-(3-methoxy-phenyl)-ethyl]-4-pyridin-4-yl-benzamide]: 0.05 to 0.5 µM.
